Values joined by “and” are separate entries in the source; they are usually repeats but may differ in a detail not shown here. Identical values can stand only once. Like-named read-outs stand apart in the source and are kept apart here.
Tests used:
[1] = target: T1, human recombinant MAO-A (Homo sapiens, UniProt P21397); experiment: biochemical; details: for inhibition at 10 µM: read-out: MAO-A % inhibition at 10 μM, human MAO-A, values in parentheses; for IC50: MAO-A IC50, human MAO-A, mean ± SD of three independent measurements
T1 construct: purchased Sigma Aldrich (Milan, Italy); host or cells: baculovirus-infected insect cells
T1 sequence (P21397 1-527): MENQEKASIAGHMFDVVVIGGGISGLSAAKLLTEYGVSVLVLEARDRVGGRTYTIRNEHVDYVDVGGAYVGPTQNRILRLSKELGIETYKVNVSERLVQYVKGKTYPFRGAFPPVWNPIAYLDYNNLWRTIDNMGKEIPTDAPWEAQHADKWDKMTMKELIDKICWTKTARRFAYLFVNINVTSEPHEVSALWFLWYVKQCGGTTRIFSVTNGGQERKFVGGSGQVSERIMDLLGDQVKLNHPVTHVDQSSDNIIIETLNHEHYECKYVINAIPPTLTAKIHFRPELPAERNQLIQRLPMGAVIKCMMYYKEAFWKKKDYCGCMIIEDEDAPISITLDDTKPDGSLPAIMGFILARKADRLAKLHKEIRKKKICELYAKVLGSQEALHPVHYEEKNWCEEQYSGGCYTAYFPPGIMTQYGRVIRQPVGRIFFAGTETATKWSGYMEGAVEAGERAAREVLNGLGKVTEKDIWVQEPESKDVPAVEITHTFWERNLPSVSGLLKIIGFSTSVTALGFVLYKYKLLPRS

[2] = target: T2, human recombinant MAO B (Homo sapiens, UniProt P27338); experiment: biochemical; details: mean ± SD of three independent measurements
T2 construct: purchased Sigma Aldrich (Milan, Italy); host or cells: baculovirus-infected insect cells
T2 sequence (P27338 1-520): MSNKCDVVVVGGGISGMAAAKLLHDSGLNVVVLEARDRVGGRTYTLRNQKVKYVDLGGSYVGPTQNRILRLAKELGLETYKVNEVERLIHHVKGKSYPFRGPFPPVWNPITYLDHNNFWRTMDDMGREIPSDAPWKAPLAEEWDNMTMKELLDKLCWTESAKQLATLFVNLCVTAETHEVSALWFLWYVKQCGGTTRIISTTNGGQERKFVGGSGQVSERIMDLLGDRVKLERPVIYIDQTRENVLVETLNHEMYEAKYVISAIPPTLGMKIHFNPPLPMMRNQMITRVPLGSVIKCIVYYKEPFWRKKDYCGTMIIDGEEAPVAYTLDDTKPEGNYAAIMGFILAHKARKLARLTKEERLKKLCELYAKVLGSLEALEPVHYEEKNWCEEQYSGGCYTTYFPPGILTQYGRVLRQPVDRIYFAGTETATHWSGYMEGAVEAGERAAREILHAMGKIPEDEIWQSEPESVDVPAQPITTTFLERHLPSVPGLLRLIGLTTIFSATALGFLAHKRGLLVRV
Protocol: In MAOs’ inhibition assays, each test compound, at 10 μM concentration, was preincubated for 20 min at 37 °C with 50 μM kynuramine as the substrate in 0.1 M phosphate-buffered solution (PBS) pH 8.0 made 0.39 osmolar with KCl. After the addition of human recombinant MAO-A (250 U/mg) or MAO B (59 U/mg) and a further 30 min of incubation, NaOH was added, and the fluorescence read at 310/400 nm excitation/emission wavelength. […] For the kinetic study on the inhibition mechanism of MAO B, three diverse scalar concentrations of the inhibitor and seven concentrations of kynuramine were used [40, 61, 62].

[3] = target: T3, hAChE (Homo sapiens, UniProt P22303); experiment: biochemical; assay type: biochemical
T3 construct: purchased Sigma Aldrich (Milan, Italy)
T3 sequence (P22303 32-614): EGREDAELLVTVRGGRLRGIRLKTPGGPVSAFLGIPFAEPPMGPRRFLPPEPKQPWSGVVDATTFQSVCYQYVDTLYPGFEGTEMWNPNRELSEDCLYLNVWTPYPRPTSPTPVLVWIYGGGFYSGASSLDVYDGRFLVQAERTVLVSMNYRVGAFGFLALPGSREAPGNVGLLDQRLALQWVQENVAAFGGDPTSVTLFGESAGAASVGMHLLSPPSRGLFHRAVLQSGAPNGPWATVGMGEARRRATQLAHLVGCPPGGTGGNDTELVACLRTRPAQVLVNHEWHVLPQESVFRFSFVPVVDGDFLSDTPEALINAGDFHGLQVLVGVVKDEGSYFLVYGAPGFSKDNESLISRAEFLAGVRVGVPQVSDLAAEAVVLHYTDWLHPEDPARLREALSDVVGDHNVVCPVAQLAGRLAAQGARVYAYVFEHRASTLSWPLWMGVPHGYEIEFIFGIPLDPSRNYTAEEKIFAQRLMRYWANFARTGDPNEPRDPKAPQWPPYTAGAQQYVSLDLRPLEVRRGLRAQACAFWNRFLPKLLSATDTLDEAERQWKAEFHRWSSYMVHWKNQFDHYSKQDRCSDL

[4] = target: T4, BChE from human serum (Homo sapiens, UniProt P06276); experiment: biochemical; details: for inhibition at 10 µM: read-out: BChE % inhibition at 10 μM, 10 μM, values in parentheses, n.a. = not active; for IC50: mean ± SD of three independent measurements
T4 construct: BChE from human serum; purchased Sigma Aldrich (Milan, Italy); host or cells: human serum
T4 sequence (P06276 29-602): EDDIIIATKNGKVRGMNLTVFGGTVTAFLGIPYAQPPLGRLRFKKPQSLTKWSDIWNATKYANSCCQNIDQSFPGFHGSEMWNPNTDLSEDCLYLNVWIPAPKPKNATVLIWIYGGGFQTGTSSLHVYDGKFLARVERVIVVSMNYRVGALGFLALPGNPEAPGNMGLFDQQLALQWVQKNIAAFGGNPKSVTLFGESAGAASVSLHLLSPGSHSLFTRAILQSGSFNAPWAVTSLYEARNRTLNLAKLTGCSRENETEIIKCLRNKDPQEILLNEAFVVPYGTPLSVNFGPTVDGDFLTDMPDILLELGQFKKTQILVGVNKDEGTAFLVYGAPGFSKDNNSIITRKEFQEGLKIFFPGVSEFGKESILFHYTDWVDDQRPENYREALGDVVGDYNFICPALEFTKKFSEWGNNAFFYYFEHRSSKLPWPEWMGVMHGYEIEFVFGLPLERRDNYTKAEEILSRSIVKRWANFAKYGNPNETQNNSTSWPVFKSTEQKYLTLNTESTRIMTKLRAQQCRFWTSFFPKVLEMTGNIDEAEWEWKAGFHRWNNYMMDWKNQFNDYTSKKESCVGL
Protocol: Human isoforms of ChEs (human recombinant AChE and BChE from human serum) and MAOs (from baculovirus-infected insect cells), purchased from Sigma Aldrich (Milan, Italy), were used for inhibition assays. Experiments were performed in 96-well plates (Greiner Bio-One, Kremsmünster, Austria) on the Infinite M1000 Pro plate reader (Tecan, Cernusco s.N., Italy), using already published protocols [46, 58, 59, 60].

[5] = design: method as in PMID 35923722; details: ref [40]; cited from earlier work
[6] = target: T3, hAChE; design: method as in PMID 35923722; details: read-out: AChE IC50; previously reported values; ref [40]; listed as E-1; cited from earlier work
[7] = UV-B photoisomerization to the photostationary state (1H NMR); assay type: physicochemical; details: 10 mM in methanol, two 15 W UV-B lamps, 24 °C; almost completed
Protocol: Using ^1H NMR spectroscopy, the formation of the Z diastereoisomer can be determined with confidence. Specifically, as previously done for 1a, methanol-d4 solutions of compounds 1b–e at a concentration of about 10 mM were irradiated with UV-B light in a Pyrex NMR tube and observed until the photostationary state (PSS) was reached.
The same procedure was followed for compounds 1f–h. However, due to the poor solubility in methanol at the concentrations required for ^1H NMR analysis, 1f–h was irradiated and monitored in an acetone-d6 solution. The diastereomeric E/Z ratio of the obtained PSS-1b–h was determined by calculating the area of the easily distinguishable signals assigned to the E and Z isomers (Figure 4).
The solution was irradiated with UV-B light until reaching the PSSUV-B (almost completed in 50–80 min). Subsequently, the PSSUV-B solution was irradiated under the same conditions with UV-C light generated using two lamps (15 Watt GT15T8 Hg UV-C tube), observing the photoconversion of the cis isomer into the trans isomer without the appearance of photodegradation.

[8] = target: T3, hAChE; experiment: AChE inhibition kinetics (Lineweaver–Burk, replot of slopes); assay type: biochemical
[9] = design: method as in PMID 35923722; details: Z isomer, thermal reversion; ref [40]; cited from earlier work
[10] = human AChE, mean ± SD of three independent measurements, read-out: AChE IC50

SMILES | inhibition at 10 µM [1] [%] | IC50 [2] [nM] | inhibition at 10 µM [4] [%] | IC50 [4] [nM] | IC50 [3, 10] [nM] | further results
CCN(CC)Cc1ccc(C=C2Cc3cc(OC)ccc3C2=O)cc1 (mixture of isomers) [E/Z-1a] | 45 | 1590 ± 40 | 28 | – | – | IC50 [3]: 780 ± 13 nM
CCN(CC)Cc1ccc(/C=C2\Cc3cc(OC)ccc3C2=O)cc1 [Compound E-1a, 2-(4-((diethylamino)methyl)benzylidene)-5-methoxy-2,3-dihydro-1H-inden-1-one] | 33 | 260 ± 12 | – | 10000 ± 150 | – | Z-isomer in the photostationary state (PSS) after UV-B light [5]: 75%; IC50 [3]: 105 ± 5 nM; IC50 [6]: 110 nM
COc1ccc2c(c1)C/C(=C\c1ccc(CN(C)C)cc1)C2=O [Compound E-1b, (E)-2-(4-((Dimethylamino)methyl)benzylidene)-5-methoxy-2,3-dihydro-1H-inden-1-one] | 33 | 686 ± 59 | – | – | 155 ± 10 | –
CCCN(CCC)Cc1ccc(/C=C2\Cc3cc(OC)ccc3C2=O)cc1 [Compound E-1c, (E)-2-(4-((Dipropylamino)methyl)benzylidene)-5-methoxy-2,3-dihydro-1H-inden-1-one] | 15 | 479 ± 81 | 28 | – | 174 ± 17 | time to reach PSS under UV-B irradiation [7]: 50 to 80 min
CCCCN(CCCC)Cc1ccc(/C=C2\Cc3cc(OC)ccc3C2=O)cc1 [Compound E-1d, (E)-2-(4-((Dibutylamino)methyl)benzylidene)-5-methoxy-2,3-dihydro-1H-inden-1-one] | 12 | 338 ± 36 | 28 | – | 990 ± 50 | –
CCCCN(C)Cc1ccc(/C=C2\Cc3cc(OC)ccc3C2=O)cc1 [Compound E-1e, (E)-2-(4-((Butyl(methyl)amino)methyl)benzylidene)-5-methoxy-2,3-dihydro-1H-inden-1-one] | 20 | 178 ± 86 | – | 5000 ± 450 | 102 ± 19 | –
COc1ccc2c(c1)C/C(=C\c1ccc(CN(C(C)C)C(C)C)cc1)C2=O [Compound E-1f, (E)-2-(4-((Diisopropylamino)methyl)benzylidene)-5-methoxy-2,3-dihydro-1H-inden-1-one] | 22 | – | – | 10000 ± 850 | 261 ± 14 | –
COc1ccc2c(c1)C/C(=C\c1ccc(CN(C)Cc3ccccc3)cc1)C2=O [Compound E-1g, (E)-2-(4-((Benzyl(methyl)amino)methyl)benzylidene)-5-methoxy-2,3-dihydro-1H-inden-1-one] | 39 | 292 ± 60 | – | 9900 ± 110 | 115 ± 4 | –
CCN(Cc1ccccc1)Cc1ccc(/C=C2\Cc3cc(OC)ccc3C2=O)cc1 [Compound E-1h, (E)-2-(4-((Benzyl(ethyl)amino)methyl)benzylidene)-5-methoxy-2,3-dihydro-1H-inden-1-one] | 13 | 355 ± 134 | – | 7000 ± 10 | 39 ± 1 | decrease of AChE inhibitory potency on photoisomerization to Z (75% Z in PSS) ([3]; PSS mixture versus pure E isomer): about 30%; mechanism of AChE inhibition ([8]; Lineweaver–Burk, both Vmax and Km changed): mixed-type inhibition; Ki ([8]; replot of slopes versus [I], x-axis intercept, hAChE 0.2 U/mL, acetylthiocholine iodide 50–300 μM): 100 nM
CCN(CC)Cc1ccc(/C=C2/Cc3cc(OC)ccc3C2=O)cc1 [Compound Z-1a] | – | – | – | – | – | half-life in MeOH at room temperature [9]: 47 days
COc1ccc2c(c1)CC(=Cc1ccc(CN(C)C)cc1)C2=O [E/Z-1b] | 32 | 839 ± 123 | 25 | – | 915 ± 138 | –
CCCN(CCC)Cc1ccc(C=C2Cc3cc(OC)ccc3C2=O)cc1 [E/Z-1c] | – | 743 ± 48 | 20 | – | 295 ± 45 | IC50 [1]: ~3000 nM and 2980 nM
CCCCN(CCCC)Cc1ccc(C=C2Cc3cc(OC)ccc3C2=O)cc1 [E/Z-1d] | 37 | 382 ± 6 | – | – | 2280 ± 210 | –
CCCCN(C)Cc1ccc(C=C2Cc3cc(OC)ccc3C2=O)cc1 [E/Z-1e] | 25 | 651 ± 61 | – | – | 1360 ± 60 | –
COc1ccc2c(c1)CC(=Cc1ccc(CN(C(C)C)C(C)C)cc1)C2=O [E/Z-1f] | – | 241 ± 26 | 20 | – | 1410 ± 90 | IC50 [1]: ~3000 nM and 3190 nM
COc1ccc2c(c1)CC(=Cc1ccc(CN(C)Cc3ccccc3)cc1)C2=O [E/Z-1g] | 49 | 354 ± 70 | 40 | – | 135 ± 62 | –
CCN(Cc1ccccc1)Cc1ccc(C=C2Cc3cc(OC)ccc3C2=O)cc1 [E/Z-1h] | 39 | 358 ± 8 | – | 10000 ± 320 | 53 ± 6 | –
